Results as given in patent US20150004134A1, “TREATMENT OF CANCER WITH HETEROCYCLIC INHIBITORS OF GLUTAMINASE” (Calithera Biosciences, Inc., priority 2012, published 2015).

System: P493-6 (myc "on") cells
Experiment: Cell Proliferation Assay
Type: cell-based
Conditions: P493-6, 72 h, read-out: Cell prolif P493 72 h IC50, P493 cells, 72 h
Procedure: P493-6 (myc “on”) cells were maintained in growth media (RPMI-1640, 10% FBS, 2 mM glutamine, 100 units/ml Penicillin and 100 μg/ml streptomycin) at 37° C. with 5% CO2. For compound assay, P493-6 cells were plated in 96-well V-bottom plates on the day of compound addition in 50 μl of growth media at a cell density of 200,000 cells/ml (10,000 cells/well). Compounds were serially diluted in 100% DMSO at 200-times the final concentration. Compounds were diluted 100-fold into growth media and then 50 μl of this mixture was added to cell plates making the final concentration of DMSO 0.5%. Cells were incubated with compound for 72 hrs at 37° C. with 5% CO2 and analyzed for antiproliferative effects either by Cell Titer Glo (Promega) or FACS analysis using the Viacount (Millipore) kit on the Guava instrument.

| Structure (SMILES) | IC50 |
| --- | --- |
| O=C(Nc1nnc(CCCCc2nnc(NC(=O)C3(C(F)(F)F)CC3)s2)s1)C1(C(F)(F)F)CC1 [Compound 62] | 19000 nM |
| CC(C)(C)OC(=O)N1CCN(C(C(=O)Nc2nnc(CCCCc3nnc(NC(=O)C(c4ccccc4)N4CCN(C(=O)OC(C)(C)C)CC4)s3)s2)c2ccccc2)CC1 (stereo not drawn) [Compound 63] | 2600 nM |
| O=C1CC(C(=O)Nc2nnc(CCCCc3nnc(NC(=O)C4CC(=O)c5ccccc54)s3)s2)c2ccccc21 (stereo not drawn) [Compound 64] | 230 nM |
| COC(C(=O)Nc1nnc(CCCCc2nnc(NC(=O)C(OC)c3ccccc3)s2)s1)c1ccccc1 (stereo not drawn) [Compound 65] | 520 nM |
| COC(C(=O)Nc1nnc(CCSCCc2nnc(NC(=O)C(OC)c3ccccc3)s2)s1)c1ccccc1 (stereo not drawn) [Compound 67] | 1800 nM |
| O=CO[C@@H](C(=O)Nc1nnc(CCCCc2nnc(NC(=O)[C@H](OC=O)c3ccccc3)s2)s1)c1ccccc1 [Compound 68] | 340 nM |
| O=C(Nc1nnc(CCCCc2nnc(NC(=O)C(O)Cc3ccccc3)s2)s1)C(O)Cc1ccccc1 (stereo not drawn) [Compound 69] | 330 nM |
| CC(C)(C)OC(=O)N1CCN(C(C(=O)Nc2nnc(CCSCCc3nnc(NC(=O)Cc4ccccc4)s3)s2)c2ccccc2)CC1 (stereo not drawn) [Compound 70] | 3400 nM |
| CC(=O)O[C@H](C(=O)Nc1nnc(CCSCCc2nnc(NC(=O)[C@@H](OC(C)=O)c3ccccc3)s2)s1)c1ccccc1 [Compound 71] | 6900 nM |
| O=C(Cc1ccccc1)Nc1nnc(CCCc2nnc(NC(=O)Cc3ccccc3)s2)s1 [Compound 72, N,N′-[5,5′-(propane-1,3-diyl)-bis(1,3,4-thiadiazole-5,2-diyl)]-bis(2-phenylacetamide)] | 470 nM |
| O=C(Nc1nnc(CCCCc2nnc(NC(=O)C(c3ccccc3)N3CCNCC3)s2)s1)C(c1ccccc1)N1CCNCC1 (stereo not drawn) [Compound 77] | 34000 nM |
| O=C(Cc1ccccc1)Nc1nnc(CCSCCc2nnc(NC(=O)C(c3ccccc3)N3CCNCC3)s2)s1 (stereo not drawn) [Compound 78] | 10000 nM |
| O=C(Nc1nnc(CCSCCc2nnc(NC(=O)C(c3ccccc3)N3CCNCC3)s2)s1)C(c1ccccc1)N1CCNCC1 (stereo not drawn) [Compound 79] | 2000 nM |
| O=C(Nc1nnc(CCCCc2nnc(NC(=O)[C@H](O)c3ccccc3)s2)s1)[C@H](O)c1ccccc1 [Compound 80] | 1300 nM |
| O=C(Nc1nnc(CCSCCc2nnc(NC(=O)[C@H](O)c3ccccc3)s2)s1)[C@H](O)c1ccccc1 [Compound 81] | 7600 nM |
| O=C(Cc1ccco1)Nc1nnc(CCSCCc2nnc(NC(=O)Cc3ccco3)s2)s1 [Compound 82] | 1300 nM |
| O=C(CC1CC1)Nc1nnc(CCSCCc2nnc(NC(=O)CC3CC3)s2)s1 [Compound 83] | 1400 nM |
| O=C(Cc1ccsc1)Nc1nnc(CCSCCc2nnc(NC(=O)Cc3ccsc3)s2)s1 [Compound 84] | 890 nM |
| O=C(CC1CC1)Nc1nnc(CCCCc2nnc(NC(=O)CC3CC3)s2)s1 [Compound 85] | 1800 nM |
| O=C(Cc1ccco1)Nc1nnc(CCCCc2nnc(NC(=O)Cc3ccco3)s2)s1 [Compound 86] | 520 nM |
| O=C(Cc1cccs1)Nc1nnc(CCCCc2nnc(NC(=O)Cc3cccs3)s2)s1 [Compound 87] | 60 nM |
| O=C(Cc1ccsc1)Nc1nnc(CCCCc2nnc(NC(=O)Cc3ccsc3)s2)s1 [Compound 88] | 120 nM |
| O=C(Nc1nnc(CCCCc2nnc(NC(=O)[C@@H](O)c3ccccc3)s2)s1)[C@@H](O)c1ccccc1 [Compound 92] | 470 nM |
| O=C(Nc1nnc(CCSCCc2nnc(NC(=O)[C@@H](O)c3ccccc3)s2)s1)[C@@H](O)c1ccccc1 [Compound 93] | 2000 nM |
| O=C(Nc1nnc(CCCCc2nnc(NC(=O)C3CC(O)c4ccccc43)s2)s1)C1CC(O)c2ccccc21 (stereo not drawn) [Compound 94] | 470 nM |
| O=C(Nc1nnc(CCSCCc2nnc(NC(=O)C3CCOC3)s2)s1)C1CCOC1 (stereo not drawn) [Compound 95] | 45000 nM |

| Structure (SMILES) | IC50 |
| --- | --- |
| Cc1cc(C)n(CC(=O)Nc2nnc(CCSCCc3nnc(NC(=O)Cn4nc(C)cc4C)s3)s2)n1 [Compound 97] | 17000 nM |
| CC(C)(C)OC(=O)Nc1cccc(CC(=O)Nc2nnc(CCSCCc3nnc(NC(=O)Cc4cccc(NC(=O)OC(C)(C)C)c4)s3)s2)c1 [Compound 98] | 3900 nM |
| COCCC(=O)Nc1nnc(CCCCc2nnc(NC(=O)CCOC)s2)s1 [Compound 100] | 9000 nM |
| COCCC(=O)Nc1nnc(CCSCCc2nnc(NC(=O)CCOC)s2)s1 [Compound 101] | 17000 nM |
| O=C(Cc1cccc(F)c1)Nc1nnc(CCSCCc2nnc(NC(=O)Cc3cccc(F)c3)s2)s1 [Compound 102] | 1400 nM |
| CC1(C)OC(=O)[C@@H](CC(=O)Nc2nnc(CCCCc3nnc(NC(=O)C[C@H]4OC(C)(C)OC4=O)s3)s2)O1 [Compound 103] | > 50000 nM |
| CCC(C)C(=O)Nc1nnc(CCSCCc2nnc(NC(=O)C(C)CC)s2)s1 (stereo not drawn) [Compound 105] | 119000 nM |
| CCC(C)C(=O)Nc1nnc(CCCCc2nnc(NC(=O)C(C)CC)s2)s1 (stereo not drawn) [Compound 107] | 1200 nM |
| CC(C)(C)OC(=O)N1CCC(CC(=O)Nc2nnc(CCSCCc3nnc(NC(=O)CC4CCN(C(=O)OC(C)(C)C)CC4)s3)s2)CC1 [Compound 111] | 880 nM |
| CC(C)(C)OC(=O)N1CCCC(CC(=O)Nc2nnc(CCSCCc3nnc(NC(=O)CC4CCCN(C(=O)OC(C)(C)C)C4)s3)s2)C1 (stereo not drawn) [Compound 112] | 890 nM |
| CC(C)(C)OC(=O)N1CCC(CC(=O)Nc2nnc(CCCCc3nnc(NC(=O)CC4CCN(C(=O)OC(C)(C)C)CC4)s3)s2)CC1 [Compound 114] | 560 nM |
| CC(C)(C)OC(=O)N1CCCC(CC(=O)Nc2nnc(CCCCc3nnc(NC(=O)CC4CCCN(C(=O)OC(C)(C)C)C4)s3)s2)C1 (stereo not drawn) [Compound 115] | 1100 nM |
| O=C(Cc1cccs1)Nc1nnc(CCSCCc2nnc(NC(=O)Cc3cccs3)s2)s1 [Compound 116] | 720 nM |
| COc1ccc2c(c1)CC(C(=O)Nc1nnc(CCSCCc3nnc(NC(=O)C4Cc5cc(OC)ccc5O4)s3)s1)O2 (stereo not drawn) [Compound 117] | 6200 nM |
| O=C(Nc1nnc(CCSCCc2nnc(NC(=O)C3Cc4cc(Br)ccc4O3)s2)s1)C1Cc2cc(Br)ccc2O1 (stereo not drawn) [Compound 118] | 36000 nM |
| CC1(C(=O)Nc2nnc(CCSCCc3nnc(NC(=O)C4(C)CCCO4)s3)s2)CCCO1 (stereo not drawn) [Compound 119] | 13000 nM |
| O=C(Nc1nnc(CCCCc2nnc(NC(=O)C3Cc4cc(Cl)ccc4O3)s2)s1)C1Cc2cc(Cl)ccc2O1 (stereo not drawn) [Compound 120] | 38000 nM |
| COc1ccc2c(c1)CC(C(=O)Nc1nnc(CCCCc3nnc(NC(=O)C4Cc5cc(OC)ccc5O4)s3)s1)O2 (stereo not drawn) [Compound 121] | 3500 nM |
| O=C(Nc1nnc(CCCCc2nnc(NC(=O)C3Cc4cc(Br)ccc4O3)s2)s1)C1Cc2cc(Br)ccc2O1 (stereo not drawn) [Compound 122] | 43000 nM |
| CC1(C(=O)Nc2nnc(CCCCc3nnc(NC(=O)C4(C)CCCO4)s3)s2)CCCO1 (stereo not drawn) [Compound 123] | 6600 nM |
| O=C(C[C@@H](O)c1ccccc1)Nc1nnc(CCSCCc2nnc(NC(=O)C[C@@H](O)c3ccccc3)s2)s1 [Compound 126] | 12000 nM |
| O=C(C[C@@H](O)c1ccccc1)Nc1nnc(CCCCc2nnc(NC(=O)C[C@@H](O)c3ccccc3)s2)s1 [Compound 127] | 450 nM |
| CC(=O)N[C@@H](C(=O)Nc1nnc(CCSCCc2nnc(NC(=O)[C@H](NC(C)=O)c3ccccc3)s2)s1)c1ccccc1 [Compound 128] | > 50000 nM |
| O=C(CC1CCNCC1)Nc1nnc(CCSCCc2nnc(NC(=O)CC3CCNCC3)s2)s1 [Compound 129] | > 50000 nM |
| O=C(Nc1nnc(CCSCCc2nnc(NC(=O)C3Oc4ccccc4O3)s2)s1)C1Oc2ccccc2O1 [Compound 134] | 28000 nM |
